Laboratory results from the supplement of paper PMC11061612.

Experiments:
Experiment in all cases: combination Emax (second highest fraction inhibited in the dose matrix, 72 h); higher = more inhibition; extreme values may be limits of the assay
[1] = test system: DU-4475 (Breast Carcinoma)
Summary of the method: (§1)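 After 24 hours at 37°C and 5% CO2 in 1536-well plates, cells in DMEM/F12 or RPMI plus 10% FBS received two-drug dose matrices for 72 hours. Viability came from CellTiter-Glo 2.0 luminescence and was scaled as inhibition, anchored at 0 by vehicle wells and at 1 by blank wells. Combination Emax is taken as the second-highest inhibition in the matrix, and Bliss excess as the observed combination effect less EA + EB − EA·EB, with EA and EB the single-agent effects.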

[2] = test system: MHH-ES-1 (Ewing's Sarcoma)
Summary of the method: as §1

[3] = test system: LS-411N (Colorectal Carcinoma)
Summary of the method: as §1

[4] = test system: KYSE-220 (Esophageal Squamous Cell Carcinoma)
Summary of the method: as §1

[5] = test system: A2780 (Ovarian Carcinoma)
Summary of the method: as §1

[6] = test system: CESS (Acute Myeloid Leukemia)
Summary of the method: as §1

[7] = test system: DMS-53 (Small Cell Lung Carcinoma)
Summary of the method: as §1

[8] = test system: CAL-27 (Oral Cavity Carcinoma)
Summary of the method: as §1

[9] = test system: ESO26 (Esophageal Adenocarcinoma)
Summary of the method: as §1

[10] = test system: JHH-2 (Hepatocellular Carcinoma)
Summary of the method: as §1

[11] = test system: A253 (Head and Neck Carcinoma)
Summary of the method: as §1

[12] = test system: HT55 (Colorectal Carcinoma)
Summary of the method: as §1

[13] = test system: A204 (Rhabdomyosarcoma)
Summary of the method: as §1

[14] = test system: EW-16 (Ewing's Sarcoma)
Summary of the method: as §1

[15] = test system: 5637 (Bladder Carcinoma)
Summary of the method: as §1

[16] = test system: NCI-H441 (Lung Adenocarcinoma)
Summary of the method: as §1

[17] = test system: RH-41 (Rhabdomyosarcoma)
Summary of the method: as §1

[18] = test system: NCI-H1651 (Lung Adenocarcinoma)
Summary of the method: as §1

[19] = test system: JVM-2 (B-Cell Non-Hodgkin's Lymphoma)
Summary of the method: as §1

[20] = test system: IM-9 (Non-Cancerous)
Summary of the method: as §1

Row | Structure (SMILES) | combination Emax [1] | combination Emax [2] | combination Emax [3] | combination Emax [4] | combination Emax [5] | combination Emax [6] | combination Emax [7] | combination Emax [8] | combination Emax [9] | combination Emax [10] | combination Emax [11] | combination Emax [12] | combination Emax [13] | combination Emax [14] | combination Emax [15] | combination Emax [16] | combination Emax [17] | combination Emax [18] | combination Emax [19] | combination Emax [20]
1 | CC1(C)CCC(CN2CCN(c3ccc(C(=O)NS(=O)(=O)c4ccc(NCC5CCOCC5)c([N+](=O)[O-])c4)c(Oc4cnc5[nH]ccc5c4)c3)CC2)=C(c2ccc(Cl)cc2)C1 [Venetoclax] + C1CN(CCC1(C(=O)N[C@@H](CCO)C2=CC=C(C=C2)Cl)N)C3=NC=NC4=C3C=CN4 [Capivasertib] (first compound max 1 µM, 7x7, partner max 3 µM) | 0.246 | 0.323 | 0.305 | 0.223 | 0.61 | 0.467 | 0.361 | 0.261 | 0.311 | 0.625 | 0.463 | 0.363 | 0.335 | 0.236 | 0.168 | 0.326 | 0.945 | 0.159 | 0.661 | 0.632
2 | CC1(C)CCC(CN2CCN(c3ccc(C(=O)NS(=O)(=O)c4ccc(NCC5CCOCC5)c([N+](=O)[O-])c4)c(Oc4cnc5[nH]ccc5c4)c3)CC2)=C(c2ccc(Cl)cc2)C1 [Venetoclax] + C=CCn1c(=O)c2cnc(Nc3ccc(N4CCN(C)CC4)cc3)nc2n1-c1cccc(C(C)(C)O)n1 [AZD1775] (first compound max 1 µM, partner max 1 µM) | 1 | 0.776 | 0.55 | 0.832 | 0.927 | 0.966 | 0.694 | 0.328 | 0.682 | 0.882 | 0.313 | 0.664 | 0.325 | 0.526 | 0.861 | 0.489 | 1 | 0.589 | 0.97 | 0.992
3 | CC1(C)CCC(CN2CCN(c3ccc(C(=O)NS(=O)(=O)c4ccc(NCC5CCOCC5)c([N+](=O)[O-])c4)c(Oc4cnc5[nH]ccc5c4)c3)CC2)=C(c2ccc(Cl)cc2)C1 [Venetoclax] + CCN(CCO)CCCOc1ccc2c(Nc3cc(CC(=O)Nc4cccc(F)c4)[nH]n3)ncnc2c1 [AZD2811] (first compound max 1 µM, 7x7, partner max 1 µM) | 0.404 | 0.657 | 0.0756 | 0.299 | 0.472 | 0.615 | 0.482 | 0.43 | 0.126 | 0.27 | 0.268 | 0.235 | 0.368 | 0.714 | 0.607 | 0.365 | 0.418 | 0.233 | 0.681 | 0.976
4 | CC1(C)CCC(CN2CCN(c3ccc(C(=O)NS(=O)(=O)c4ccc(NCC5CCOCC5)c([N+](=O)[O-])c4)c(Oc4cnc5[nH]ccc5c4)c3)CC2)=C(c2ccc(Cl)cc2)C1 [Venetoclax] + CN(C)CCCOc1ccc(-c2ccc3ncc4c(c3c2)n(C2CCOCC2)c(=O)n4C)cn1 [AZD0156] (first compound max 1 µM, 7x7, partner max 1 µM) | 0.0995 | 0.487 | 0.118 | 0.195 | 0.491 | 0.142 | 0.44 | 0.173 | 0.0967 | 0.334 | 0.178 | 0.173 | 0.31 | 0.19 | 0.15 | 0.25 | 0.491 | 0.194 | 0.34 | 0.812
5 | CC1(C)CCC(CN2CCN(c3ccc(C(=O)NS(=O)(=O)c4ccc(NCC5CCOCC5)c([N+](=O)[O-])c4)c(Oc4cnc5[nH]ccc5c4)c3)CC2)=C(c2ccc(Cl)cc2)C1 [Venetoclax] + COc1cc(Nc2ncc3c(n2)-c2ccc(Cl)cc2C(c2c(F)cccc2OC)=NC3)ccc1C(=O)O [Alisertib] (first compound max 1 µM, 7x7, partner max 10 µM) | 0.807 | 0.795 | 0.0718 | 0.379 | 0.709 | 0.89 | 0.809 | 0.689 | 0.198 | 0.525 | 0.444 | 0.347 | 0.431 | 0.726 | 0.778 | 0.343 | 0.765 | 0.269 | 0.892 | 1
6 | CC1(C)CCC(CN2CCN(c3ccc(C(=O)NS(=O)(=O)c4ccc(NCC5CCOCC5)c([N+](=O)[O-])c4)c(Oc4cnc5[nH]ccc5c4)c3)CC2)=C(c2ccc(Cl)cc2)C1 [Venetoclax] + C[C@@H]1COCCN1C2=NC(=NC(=C2)C3(CC3)[S@](=N)(=O)C)C4=C5C=CNC5=NC=C4 [AZD6738] (first compound max 1 µM, 7x7, partner max 10 µM) | 1 | 0.707 | 0.736 | 0.875 | 0.797 | 0.929 | 0.809 | 0.425 | 0.508 | 0.697 | 0.804 | 0.58 | 0.479 | 0.792 | 0.69 | 0.454 | 0.855 | 0.652 | 0.892 | 0.995
7 | CC1(C)CCC(CN2CCN(c3ccc(C(=O)NS(=O)(=O)c4ccc(NCC5CCOCC5)c([N+](=O)[O-])c4)c(Oc4cnc5[nH]ccc5c4)c3)CC2)=C(c2ccc(Cl)cc2)C1 [Venetoclax] + C[C@@H](Nc1cc(F)cc(F)c1)c1cc(C(=O)N(C)C)cc2c(=O)cc(N3CCOCC3)oc12 [AZD8186] (first compound max 1 µM, 7x7, partner max 3 µM) | 0.262 | 0.191 | 0.343 | 0.141 | 0.472 | 0.587 | 0.137 | 0.182 | 0.0996 | 0.806 | 0.103 | 0.14 | 0.327 | 0.17 | 0.141 | 0.184 | 0.491 | 0.128 | 0.661 | 0.573
8 | CC1(C)CCC(CN2CCN(c3ccc(C(=O)NS(=O)(=O)c4ccc(NCC5CCOCC5)c([N+](=O)[O-])c4)c(Oc4cnc5[nH]ccc5c4)c3)CC2)=C(c2ccc(Cl)cc2)C1 [Venetoclax] + Cc1cc2ncnn2cc1Nc1ncc2c(n1)n(C1CCOCC1)c(=O)n2C [AZD7648] (first compound max 1 µM, 7x7, partner max 10 µM) | 0.23 | 0.26 | 0.107 | 0.145 | 0.628 | 0.327 | 0.428 | 0.174 | 0.134 | 0.506 | 0.212 | 0.205 | 0.408 | 0.193 | 0.251 | 0.264 | 0.608 | 0.191 | 0.528 | 0.655
9 | CC1(C)CCC(CN2CCN(c3ccc(C(=O)NS(=O)(=O)c4ccc(NCC5CCOCC5)c([N+](=O)[O-])c4)c(Oc4cnc5[nH]ccc5c4)c3)CC2)=C(c2ccc(Cl)cc2)C1 [Venetoclax] + Cn1cnc2c(F)c(Nc3ccc(Br)cc3Cl)c(C(=O)NOCCO)cc21 [Selumetinib] (first compound max 1 µM, 7x7, partner max 3 µM) | 1 | 0.0867 | 0.526 | 0.31 | 0.377 | 0.319 | 0.367 | 0.466 | 0.137 | 0.388 | 0.185 | 0.728 | 0.206 | 0.127 | 0.264 | 0.255 | 0.289 | 0.0964 | 0.392 | 0.901
